Source: ChEMBL document CHEMBL3886467 (2016)

The compounds below were run against WD repeat-containing protein 5 (Homo sapiens, UniProt P61964) (assay: Binding Assay: All the FP based experiments were performed in MICROFLUOR 2 Black, "U" Bottom, 96-well Microtiter Plates (ThermoSci.) and FP was measured as mP units in a microplate reader (Tecan Ultra) with excitation at 485 nm and emission at 530 nm. To dilutions of WDR5Δ23 (2.2-0 uM) in 100 ul assay buffer (0.1M Phosphate, 25 mM KCl, 0.01% Triton, pH 6.5) 20 ul of a fixed concentration of the tracer in the assay buffer was added, followed by an addition of 5 ul DMSO to give 125 ul of total volume. Each assay had two controls: blank (without protein and tracer) and tracer only (without protein). The plates were incubated on a shaker at room temperature to reach equilibrium and mP values were measured at the 3 hour time point.).
With CCC(CC)(NC(=O)C(C)C)C(=O)N[C@@H](CCCNC(=N)N)C(=O)NC1(C(=O)NC(c2ccc(Cl)cc2)c2ccc(Cl)cc2)CCCC1 the IC50 was less than 3 µM.
CCC(CC)(NC(=O)C(C)C)C(=O)N[C@H](CCCNC(=N)N)C(=O)NC1(C(=O)NC(c2ccc(Cl)cc2)c2ccc(Cl)cc2)CCCC1 was tested, and the IC50 was less than 10 µM.
With CCNC(=O)[C@H](CCCNC(=N)N)NC(=O)C(CC)(CC)NC(=O)CC the IC50 was less than 10 µM.
Work on CC(=O)N[C@@H](C)C(=O)N[C@@H](C(=O)N[C@@H](C)C(N)=O)c1ccc(NC(=N)N)cc1 yielded an IC50 greater than 10 µM.
In the case of CCC(CC)(NC(=O)C(C)C)C(=O)N[C@@H](CCCNC(=N)N)C(=O)N(C)C, the IC50 is reported as greater than 30 µM.
In the case of CC(=O)N[C@@H](C)C(=O)N[C@H](C(=O)N[C@@H](C)C(N)=O)c1ccc(NC(=N)N)cc1, the IC50 is reported as greater than 10 µM.
